“And” between values parts separate entries of the source, which are not always exact repeats. Identical values can stand only once.
Tests used:
Format in all cases: functional
ACHN [1] = experiment: Cytotoxicity against Homo sapiens (human) ACHN cells after 48 hr by SRB assay
OVCAR-3 = experiment: Cytotoxicity against Homo sapiens (human) OVCAR3 cells at 10^-4 to 10^-8 M after 48 hr by SRB assay; settings: OVCAR-3, 48 h, read-out: pTGI (converted)
SF-295 = experiment: Cytotoxicity against Homo sapiens (human) SF295 cells at 10^-4 to 10^-8 M after 48 hr by SRB assay; settings: SF-295, 48 h, read-out: pTGI (converted)
ACHN [2] = experiment: Cytotoxicity against Homo sapiens (human) ACHN cells at 10^-4 to 10^-8 M after 48 hr by SRB assay; settings: read-out: pTGI (converted)
T47D = experiment: Cytotoxicity against Homo sapiens (human) T47D cells at 10^-4 to 10^-8 M after 48 hr by SRB assay; settings: read-out: pTGI (converted)
RPMI-8226 = experiment: Cytotoxicity against Homo sapiens (human) RPMI8226 cells at 10^-4 to 10^-8 M after 48 hr by SRB assay; settings: RPMI-8226, 48 h, read-out: pTGI (converted)
U-251 [3] = experiment: Cytotoxicity against Homo sapiens (human) U251 cells at 10^-4 to 10^-8 M after 48 hr by SRB assay; settings: U-251, 48 h, read-out: pTGI (converted)
A549 = experiment: Cytotoxicity against Homo sapiens (human) A549 cells at 10^-4 to 10^-8 M after 48 hr by SRB assay; settings: A549, 48 h, read-out: pTGI (converted)
UACC-62 = experiment: Cytotoxicity against Homo sapiens (human) UACC62 cells at 10^-4 to 10^-8 M after 48 hr by SRB assay; settings: UACC-62, 48 h, read-out: pTGI (converted)
NCI-H226 = experiment: Cytotoxicity against Homo sapiens (human) NCI-H226 cells after 48 hr by SRB assay
MCF7 = experiment: Cytotoxicity against Homo sapiens (human) MCF7 cells at 10^-4 to 10^-8 M after 48 hr by SRB assay; settings: MCF7, 48 h, read-out: pTGI (converted)
HT-29 = experiment: Cytotoxicity against Homo sapiens (human) HT-29 cells at 10^-4 to 10^-8 M after 48 hr by SRB assay; settings: HT-29, 48 h, read-out: pTGI (converted)
M14 [4] = experiment: Cytotoxicity against Homo sapiens (human) M14 cells at 10^-4 to 10^-8 M after 48 hr by SRB assay; settings: M14, 48 h, read-out: pTGI (converted)
SR = experiment: Cytotoxicity against Homo sapiens (human) SR cells at 10^-4 to 10^-8 M after 48 hr by SRB assay; settings: read-out: pTGI (converted)
SK-OV-3 = experiment: Cytotoxicity against Homo sapiens (human) SKOV3 cells at 10^-4 to 10^-8 M after 48 hr by SRB assay; settings: SK-OV-3, 48 h, read-out: pTGI (converted)
HCT-15 = experiment: Cytotoxicity against Homo sapiens (human) HCT15 cells at 10^-4 to 10^-8 M after 48 hr by SRB assay; settings: HCT-15, 48 h, read-out: pTGI (converted)
SN12C = experiment: Cytotoxicity against Homo sapiens (human) SN12C cells at 10^-4 to 10^-8 M after 48 hr by SRB assay; settings: read-out: pTGI (converted)
Hs-578T = experiment: Cytotoxicity against Homo sapiens (human) Hs578T cells at 10^-4 to 10^-8 M after 48 hr by SRB assay; settings: read-out: pTGI (converted)
LOX IMVI = experiment: Cytotoxicity against Homo sapiens (human) LOXIMVI cells at 10^-4 to 10^-8 M after 48 hr by SRB assay; settings: read-out: pTGI (converted)
SNB-75 = experiment: Cytotoxicity against Homo sapiens (human) SNB75 cells at 10^-4 to 10^-8 M after 48 hr by SRB assay; settings: SNB-75, 48 h, read-out: pTGI (converted)
M14 [5] = experiment: Cytotoxicity against Homo sapiens (human) M14 cells after 48 hr by SRB assay
[6] = Cytotoxicity against Homo sapiens (human) NCI-ADR-RES cells at 10^-4 to 10^-8 M after 48 hr by SRB assay; settings: read-out: pTGI (converted)
A498 = experiment: Cytotoxicity against Homo sapiens (human) A498 cells at 10^-4 to 10^-8 M after 48 hr by SRB assay; settings: A498, 48 h, read-out: pTGI (converted)
DU-145 = experiment: Cytotoxicity against Homo sapiens (human) DU145 cells at 10^-4 to 10^-8 M after 48 hr by SRB assay; settings: DU-145, 48 h, read-out: pTGI (converted)
SK-MEL-28 = experiment: Cytotoxicity against Homo sapiens (human) SK-MEL-28 cells after 48 hr by SRB assay
KM12 = experiment: Cytotoxicity against Homo sapiens (human) KM12 cells at 10^-4 to 10^-8 M after 48 hr by SRB assay; settings: KM12, 48 h, read-out: pTGI (converted)
OVCAR-4 = experiment: Cytotoxicity against Homo sapiens (human) OVCAR4 cells at 10^-4 to 10^-8 M after 48 hr by SRB assay; settings: OVCAR-4, 48 h, read-out: pTGI (converted)
SNB-19 = experiment: Cytotoxicity against Homo sapiens (human) SNB19 cells at 10^-4 to 10^-8 M after 48 hr by SRB assay; settings: SNB-19, 48 h, read-out: pTGI (converted)
HL-60(TB) = experiment: Cytotoxicity against Homo sapiens (human) HL-60(TB) cells at 10^-4 to 10^-8 M after 48 hr by SRB assay; settings: HL-60, 48 h, read-out: pTGI (converted)
OVCAR-5 = experiment: Cytotoxicity against Homo sapiens (human) OVCAR5 cells at 10^-4 to 10^-8 M after 48 hr by SRB assay; settings: OVCAR-5, 48 h, read-out: pTGI (converted)
COLO 205 = experiment: Cytotoxicity against Homo sapiens (human) COLO205 cells after 48 hr by SRB assay
SK-MEL-5 = experiment: Cytotoxicity against Homo sapiens (human) SK-MEL-5 cells after 48 hr by SRB assay
U-251 [7] = experiment: Cytotoxicity against Homo sapiens (human) U251 cells after 48 hr by SRB assay
SF-268 = experiment: Cytotoxicity against Homo sapiens (human) SF268 cells at 10^-4 to 10^-8 M after 48 hr by SRB assay; settings: SF-268, 48 h, read-out: pTGI (converted)
MOLT-4 = experiment: Cytotoxicity against Homo sapiens (human) MOLT4 cells at 10^-4 to 10^-8 M after 48 hr by SRB assay; settings: MOLT-4, 48 h, read-out: pTGI (converted)
TK-10 = experiment: Cytotoxicity against Homo sapiens (human) TK10 cells at 10^-4 to 10^-8 M after 48 hr by SRB assay; settings: TK-10, 48 h, read-out: pTGI (converted)

SMILES	TGI (OVCAR-3)	TGI (SF-295)	TGI (ACHN [2])	TGI (T47D)	TGI (RPMI-8226)	TGI (U-251 [3])	TGI (A549)	TGI (UACC-62)	TGI (MCF7)	TGI (HT-29)	TGI (M14 [4])	TGI (SR)	TGI (SK-OV-3)	TGI (HCT-15)	TGI (SN12C)	TGI (Hs-578T)	TGI (LOX IMVI)	TGI (SNB-75)	TGI [6]	TGI (A498)	other results
COC(=O)[C@]12CCC(C)(C)C[C@H]1C1=CC[C@@H]3[C@@]4(C)CC/C(=N\O)C(C)(C)[C@@H]4CC[C@@]3(C)[C@]1(C)CC2	35.5 µM	37.2 µM	41.7 µM	72.4 µM	> 100 µM	33.9 µM	> 100 µM	56.2 µM	40.7 µM	79.4 µM	57.5 µM	55 µM	> 100 µM	55 µM	42.7 µM	66.1 µM	39.8 µM	38.9 µM	> 100 µM	63.1 µM	GI50 (ACHN [1]; Homo sapiens, ACHN, 48 h): 20.9 µM; GI50 (NCI-H226; Homo sapiens, NCI-H226, 48 h): 27.5 µM; GI50 (M14 [5]; Homo sapiens, M14, 48 h): 23.4 µM; TGI (DU-145): 42.7 µM; GI50 (SK-MEL-28; Homo sapiens, SK-MEL-28, 48 h): 24.5 µM; TGI (KM12): > 100 µM; TGI (OVCAR-4): > 100 µM; TGI (SNB-19): 69.2 µM; TGI (HL-60(TB)): > 100 µM; TGI (OVCAR-5): 55 µM; GI50 (COLO 205; Homo sapiens, COLO 205, 48 h): 22.4 µM; GI50 (SK-MEL-5; Homo sapiens, SK-MEL-5, 48 h): 21.4 µM; GI50 (U-251 [7]; Homo sapiens, U-251, 48 h): 19.1 µM; TGI (SF-268): 56.2 µM; TGI (MOLT-4): > 100 µM; TGI (TK-10): 97.7 µM
COC(=O)[C@]12CCC(C)(C)C[C@H]1C1=CC[C@@H]3[C@@]4(C)CC/C(=N\OC(=O)/C=C5/SC(=O)NC5=O)C(C)(C)[C@@H]4CC[C@@]3(C)[C@]1(C)CC2	3.47 µM	20.9 µM	3.39 µM	18.6 µM	6.03 µM	3.39 µM	17.8 µM	10.2 µM	10.7 µM	5.13 µM	5.13 µM	3.89 µM	34.7 µM	11 µM	18.6 µM	6.76 µM	3.09 µM	22.9 µM	22.9 µM	5.75 µM	GI50 (ACHN [1]): 1.74 µM and 6.61 µM; GI50 (NCI-H226): ≥ 100 µM and 12.3 µM; GI50 (M14 [5]): ≥ 20 µM; TGI (DU-145): 17 µM; GI50 (SK-MEL-28): 7.08 µM and 2.04 µM; TGI (KM12): 12.6 µM; TGI (OVCAR-4): 6.92 µM; TGI (SNB-19): 26.3 µM; TGI (HL-60(TB)): 5.37 µM; TGI (OVCAR-5): 33.9 µM; GI50 (COLO 205): 3.47 µM; GI50 (COLO 205; Homo sapiens, COLO 205, 48 h): 2.63 µM; GI50 (SK-MEL-5): 43.7 µM and 5.25 µM; GI50 (U-251 [7]): 6.76 µM and 1.78 µM; TGI (SF-268): 10.7 µM; TGI (MOLT-4): 7.41 µM; TGI (TK-10): 8.13 µM
CC1(C)CC[C@@]23CC[C@]4(C)[C@@](OC2=O)([C@@H]3C1)[C@@H](Br)C[C@@H]1[C@@]2(C)CC/C(=N\O)C(C)(C)[C@@H]2CC[C@]14C	49 µM	36.3 µM	> 100 µM	74.1 µM	> 100 µM	> 100 µM	> 100 µM	> 100 µM	60.3 µM	> 100 µM	> 100 µM	7.94 µM	> 100 µM	> 100 µM	> 100 µM	24.5 µM	> 100 µM	60.3 µM	> 100 µM	> 100 µM	GI50 (ACHN [1]; Homo sapiens, ACHN, 48 h): 53.7 µM; GI50 (NCI-H226; Homo sapiens, NCI-H226, 48 h): 28.2 µM; GI50 (M14 [5]; Homo sapiens, M14, 48 h): 9.12 µM; TGI (DU-145): > 100 µM; GI50 (SK-MEL-28; Homo sapiens, SK-MEL-28, 48 h): 43.7 µM; TGI (KM12): > 100 µM; TGI (OVCAR-4): > 100 µM; TGI (SNB-19): > 100 µM; TGI (HL-60(TB)): > 100 µM; TGI (OVCAR-5): > 100 µM; GI50 (COLO 205; Homo sapiens, COLO 205, 48 h): 91.2 µM; GI50 (SK-MEL-5; Homo sapiens, SK-MEL-5, 48 h): 26.3 µM; GI50 (U-251 [7]; Homo sapiens, U-251, 48 h): 22.4 µM; TGI (SF-268): > 100 µM; TGI (MOLT-4): > 100 µM; TGI (TK-10): 52.5 µM

Reference: ChEMBL document CHEMBL3045033, “Synthesis of new potential anticancer agents based on 4-thiazolidinone and oleanane scaffolds” (Med Chem Res, 2012)
